The record followed here is US10280175B2, “Hepatitis B antiviral agents” (Enanta Pharmaceuticals, Inc., priority 2016, dated 2019).

The test relates to HBV in HepAD38 cells. Briefly: HepAD38 cell antiviral assay (reduction of viral product accumulation). In kind it is cell-based. To be noted: Hepatitis B virus, concentration reducing viral product accumulation by 50% relative to no drug controls. The method, then: Methods: HepAD38 cells are maintained as previously reported (Ladner et al, Antimicrob. Agents Chemother. 1997, […], 1715). Briefly, cells are passaged upon attaining confluency in DMEM/F12 media in the presence of 10% FBS, Penn/Strep, 250 μg/mL G418, and 1 ug/ml tetracycline. Novel compounds are screened by first washing cells three times with PBS to remove tetracycline, and plating in 96 well plates at 35,000 cells/well. Compounds dissolved in DMSO are then diluted 1:200 into wells containing cells. Five days after compound addition, material is harvested for analysis. For an extended 8 day analysis, cells are plated and treated as described above, but media and compound are refreshed on d2 and d5 post initial treatment.
On harvest day, virion DNA is obtained by lysing with Sidestep Lysis and Stabilization Buffer and then quantified via quantitative real time PCR. Commercially available ELISA kits are used to quantitate the viral proteins HBsAg (Alpco) or HBeAg (US Biological) by following the manufacturer's recommended protocol after diluting samples to match the linear range of their respective assays. Irrespective of readout, compound concentrations that reduce viral product accumulation in the cell lysates or supernatants by 50% relative to no drug controls (EC50) are reported; EC50 ranges are as follows: A<1 μM; B 1-10 μM; C>10 μM.
Compound `O=S(=O)(c1cc(-c2ncc(-c3ccc(Br)c(F)c3)[nH]2)ccc1Cl)N1C2CC[C@@H]1C[C@H](O)C2` [Example 1] gave an EC50 below 1000 nM. In the case of `O=S(=O)(c1cc(-c2ncc(-c3ccc(Br)c(F)c3)[nH]2)ccc1Cl)N1C2CC[C@@H]1C[C@@H](O)C2` [Example 2], the EC50 is below 1000 nM.

Compound `C[C@H](NC(=O)OC(C)(C)C)C(=O)O[C@@H]1CC2CC[C@H](C1)N2S(=O)(=O)c1cc(-c2ncc(-c3ccc(Br)c(F)c3)[nH]2)ccc1Cl` [Example 3] yielded a concentration giving a half-maximal response (EC50) below 1000 nM. `C[C@H](N)C(=O)O[C@@H]1CC2CC[C@H](C1)N2S(=O)(=O)c1cc(-c2ncc(-c3ccc(Br)c(F)c3)[nH]2)ccc1Cl` [Example 4] gave a 50% effective concentration (EC50) below 1000 nM. Then `O=S(=O)(c1cc(-c2ncc(-c3ccc(Br)c(F)c3)[nH]2)ccc1Cl)N1CCC(O)C2(CC2)C1` (stereo not drawn) [Example 5], with below 1000 nM; and `O=C(Nc1cc(F)c(F)c(F)c1)c1ccc(Cl)c(S(=O)(=O)N2C3CC[C@@H]2C[C@H](O)C3)c1` [Example 6], with below 1000 nM. `O=C(Nc1cc(F)c(F)c(F)c1)c1ccc(Cl)c(S(=O)(=O)N2C3CC[C@@H]2C[C@@H](O)C3)c1` [Example 7]: the EC50 was below 1000 nM.

For `O=C(Nc1ccc(Br)c(F)c1)c1ccc(Cl)c(S(=O)(=O)N2C3CC[C@@H]2C[C@H](O)C3)c1` [Example 8], the EC50 lay in the range of 1000 to 10000 nM. For the compound `O=C(Nc1cc(F)c(F)c(F)c1)c1ccc(Cl)c(S(=O)(=O)N2CCC(O)C3(CC3)C2)c1` (stereo not drawn) [Example 9], the EC50 is below 1000 nM. As to `O=S(=O)(c1cc(-c2ncc(-c3ccc(C4CC4)c(Cl)c3)[nH]2)ccc1Cl)N1C2CC[C@@H]1C[C@H](O)C2` [Example 10], the EC50 is below 1000 nM. Compound `O=S(=O)(c1cc(-c2ncc(-c3ccc(Cl)c(C4CC4)c3)[nH]2)ccc1Cl)N1C2CC[C@@H]1C[C@H](O)C2` [Example 11] yielded an EC50 below 1000 nM.

As to `O=S(=O)(c1cc(-c2ncc(-c3ccc(C(F)(F)F)c(C4CC4)c3)[nH]2)ccc1Cl)N1C2CC[C@@H]1C[C@H](O)C2` [Example 12], the EC50 is below 1000 nM. As for `O=S(=O)(c1cc(-c2ncc(-c3ccc(C(F)(F)F)c(Cl)c3)[nH]2)ccc1Cl)N1C2CC[C@@H]1C[C@H](O)C2` [Example 13], the concentration giving a half-maximal response (EC50) is below 1000 nM.

The compound `O=S(=O)(c1cc(-c2ncc(-c3ccc(Cl)c(C(F)(F)F)c3)[nH]2)ccc1Cl)N1C2CC[C@@H]1C[C@H](O)C2` [Example 14] yielded an EC50 below 1000 nM. The compound `O=S(=O)(c1cc(-c2ncc(-c3ccc(C4CC4)c(C(F)(F)F)c3)[nH]2)ccc1Cl)N1C2CC[C@@H]1C[C@H](O)C2` [Example 15] came in with a half-maximal effective concentration (EC50) of 1000 to 10000 nM. As to `O=C1CC2CCC(C1)N2S(=O)(=O)c1cc(C(=O)Nc2cc(F)c(F)c(F)c2)ccc1Cl` [Example 16], the concentration for a half-maximal effect (EC50) is below 1000 nM. On to `C=C1CC2CCC(C1)N2S(=O)(=O)c1cc(C(=O)Nc2cc(F)c(F)c(F)c2)ccc1Cl` [Example 17], for which the concentration giving a half-maximal response (EC50) is below 1000 nM. For `O=C(Nc1cc(F)c(F)c(F)c1)c1ccc(Cl)c(S(=O)(=O)N2C3CCC2CC(O)(CO)C3)c1` (stereo not drawn) [Example 18], the 50% effective concentration (EC50) is below 1000 nM. As for `O=C(Nc1cc(F)c(F)c(F)c1)c1ccc(Cl)c(S(=O)(=O)N2C3CCC2CC(CO)C3)c1` (stereo not drawn) [Example 19], the figure is below 1000 nM; as for `O=C(Nc1cc(F)c(F)c(F)c1)c1ccc(Cl)c(S(=O)(=O)N2CCC3(CC2)COC3)c1` [Example 20], 1000 to 10000 nM. For the compound `O=S(=O)(c1cc(-c2ncc(-c3ccc(Br)c(F)c3)[nH]2)ccc1Cl)N1CCC2(COC2)C1` [Example 21], the EC50 was 1000 to 10000 nM. Then `O=S(=O)(c1cc(-c2ncc(-c3ccc(Br)c(F)c3)[nH]2)ccc1Cl)N1CC2(COC2)C1` [Example 22], with 1000 to 10000 nM; and `O=S(=O)(c1cc(C(Nc2cc(F)c(F)c(F)c2)C(F)(F)F)ccc1Cl)N1C2CC[C@@H]1CC(O)C2` (stereo partly drawn) [Example 23], with above 10000 nM. `O=S(=O)(c1cc(C2(Nc3cc(F)c(F)c(F)c3)COC2)ccc1Cl)N1C2CC[C@@H]1CC(O)C2` (stereo partly drawn) [Example 24] came in with an EC50 above 10000 nM.

One may read the EC50 as the concentration at which the effect is half-maximal. A higher EC50 goes with lower potency in that assay.
